How the values were obtained:
[1] = cholesterol:CTAB vesicles, DELOS-SUSP; cited from earlier work
Aspergillus niger = assay: Agar diffusion method, fungicidal activity; type: cell-based; conditions: 28° C., 72 hours; controls 100 μg/ml
Description: (§1) This activity was determined using the agar diffusion method (Manual of Clinical Microbiology. 6th ed. Washington, DC: ASM; 1995). The effectiveness of the different suspensions was assayed against Gram positive bacteria (Bacillus subtilis, Staphylococcus aureus), Gram negative bacteria (E. coli, Proteus mirabilis), and against fungi (Candida albicans, Aspergillus niger) using the technique of wells in nutrient agar plates. These microorganisms were identified and provided by the microorganism collection BCCM/LMG (Belgium). Bacteria were grown overnight at 37° C. in Tryptone Soy Broth (Oxoid), and fungi were incubated for 72 hours at 28° C. in Sabouraud Dextrose Broth (Oxoid). These suspensions were used as inocula. A final inoculum, using 100 μl of a suspension containing 10^8 colony forming units/ml of bacteria, or 10^4 spores/ml of fungus, was spread on Tryptone Soy Agar and Sabouraud Dextrose Agar (Oxoid) plates, respectively. The disk (6 mm in diameter) was impregnated with each of the different vesicle suspensions to be tested. […] Assay plates were incubated at 37° C. for 24 hours for bacteria, and 28° C. during 72 hours for fungi, depending on the incubation time required for visible growth.

Candida albicans = assay: Agar diffusion method, fungicidal activity; type: cell-based; conditions: 28° C., 72 hours; controls 100 μg/ml
Description: as §1

| Compound | gentamicin encapsulation [1] [%] | Fungicidal activity (Inhibition zone) A. niger (Aspergillus niger) [mm] | Fungicidal activity (Inhibition zone) C. albicans (Candida albicans) [mm] |
| --- | --- | --- | --- |
| gentamicin | < 2 |  |  |
| OC(Cn1cncn1)(Cn1cncn1)c1ccc(F)cc1F [Fluconazole, fluconazole] |  | 21 | 22 |
